From US20240316061A1, “BET INHIBITORS FOR TREATING PAB1 DEFICIENT CANCER” (INSTITUT CURIE, priority 2021, published 2024)

Legend:
Assay type in all cases: cell-based
[1] = system: isogenic HAP1 cells (Wild-type or BAP1 knockout); assay: Proliferation of isogenic HAP1 cells exposed to BI894999, CellTiter-Glo; settings: increasing concentration for 7 days; FIG. 3
Procedure: Proliferation of isogenic HAP1 cells (Wild-type or BAP1 knockout) exposed to increasing concentration of the BET inhibitor BI894999 for 7 days. Proliferation was measured using the CellTiter-Glo Luminescent Cell Viability assay.

[2] = system: human BAP1 cells either wild type or BAP1 knockout; assay: Proliferation of BAP1 wild type or BAP1 knockout cells exposed to OTX015, Cell Titer Glow; settings: increasing dose for 12 days, compound renewed after 6 days; FIG. 1
Procedure: Proliferation of human BAP1 cells either wild type or BAP1 knockout (generated by genome editing) exposed to increasing dose of OTX015 for 12 days Cells were grown in IMDM and compound was renewed after 6 days. Cell viability was measured using Cell Titer Glow.

[3] = system: uveal melanoma derived cells wild type for BAP1 (MP41 and MM66) or BAP1 inactivated (MP46 and MP38); assay: Proliferation of uveal melanoma derived cells exposed to OTX015, MTT assay; settings: increasing concentration for 12 days; MP46, MP38 vs MP41, MM66; FIG. 2
Procedure: Proliferation of uveal melanoma derived cells either wild type for BAP1 (MP41 and MM66) or for which BAP1 is inactivated (MP46 and MP38). Cells were exposed to increasing concentration of OTX015 for 12 days, Proliferation was measured using the MTT assay.

CNc1nc(-c2nc3ccc(N4CCN(C)CC4)cc3n2Cc2ccccc2)cn2c(C)nnc12 [BI894999]
Dose response (proliferation) in BAP1 knockout HAP1 cells compared to HAP1 cells expressing BAP1 [1]: enhanced dose response

Cc1sc2c(c1C)C(c1ccc(Cl)cc1)=N[C@@H](CC(=O)Nc1ccc(O)cc1)c1nnc(C)n1-2 [OTX015]
Dose response (proliferation) of BAP1 KO cells compared to BAP1 WT cells [2]: highest dose response | Dose response (proliferation) in BAP1 mutated UM derived cells compared to UM cells expressing BAP1 [3]: enhanced dose response
